This passage reports IC50 results from patent US20240218022A1, “ANTI-VISTA MACROCYCLIC PEPTIDES AND COMPOSITIONS” (BRISTOL-MYERS SQUIBB COMPANY, priority 2022, published 2024).

The target of this assay is T1, mouse VISTA (mVISTA) (Mus musculus, UniProt Q9D659).
T1 construct: expressed in transfected cells; host or cells: Human embryonic kidney 293T cells
T1 sequence (Q9D659 33-308): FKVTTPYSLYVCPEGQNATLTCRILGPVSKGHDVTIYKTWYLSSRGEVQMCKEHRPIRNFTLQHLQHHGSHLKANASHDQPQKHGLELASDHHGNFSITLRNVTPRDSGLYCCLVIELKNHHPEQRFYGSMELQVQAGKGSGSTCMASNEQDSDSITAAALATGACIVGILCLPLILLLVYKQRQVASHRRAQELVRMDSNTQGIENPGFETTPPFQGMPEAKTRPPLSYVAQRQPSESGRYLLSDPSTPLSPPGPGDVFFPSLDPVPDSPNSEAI
The assay can be described thus: Cell-Based Binding High-Content Assay For mVISTA (HC CBA mVISTA). In short, it runs like this: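 Read-out: Alexa 647–streptavidin signal imaged on fixed, Hoechst-stained mVISTA-293T cells, with IC50 taken from a four-parameter logistic curve. Compounds competed with 2 nM biotinylated peptide for 30 min at room temperature, tested under both no-wash and wash (1 h compound, media exchange, 1 h) formats.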

Where [1] appears, read: 293T cells expressing mouse VISTA, competition with biotinylated peptide (2 nM), read-out: HC CBA mVISTA IC50.

SMILES strings stand for the structures. Where two headings read alike, the source gives them in different places. Starred links: 1 amine or outer side, 2 acyl side, 3 side chain; linkers in the order of their positions; H or OH if unused. Positions of bridges follow the written chain, without caps; N, C: chain ends. Non-standard residues stand in square brackets, D forms with d. Residues, ends and D or L forms follow the SMILES beside them. Phe(3-Me) = Cc1cccc(C[C@H](N)C(=O)O)c1; Phe(4-F) = N[C@@H](Cc1ccc(F)cc1)C(=O)O; γGlu = O=C(O)[C@H](CCC(=O)[*:2])N[*:1]; 2Nal = N[C@@H](Cc1ccc2ccccc2c1)C(=O)O; Gly(cPr) = N[C@H](C(=O)O)C1CC1; Ahp(2) = CCCCC[C@H](N)C(=O)O; NMeNle = CCCC[C@H](NC)C(=O)O; Tle = CC(C)(C)[C@H](N)C(=O)O; NMeS = CN[C@@H](CO)C(=O)O; NHexGly = CCCCCCNCC(=O)O; Nle = CCCC[C@H](N)C(=O)O; Orn = NCCC[C@H](N)C(=O)O; Aun = NCCCCCCCCCCC(=O)O; Dab = NCC[C@H](N)C(=O)O; Nva = CCC[C@H](N)C(=O)O; AEEA = NCCOCCOCC(=O)O

Usually IC50 stands for the point on the concentration scale where inhibition reaches its midpoint. `CCCCCCN1CC(=O)N[C@@H](Cc2ccc(O)cc2)C(=O)N[C@@H](CCCC)C(=O)N[C@@H](CC(N)=O)C(=O)N[C@@H](CCCNC(=N)N)C(=O)N[C@@H](CC(C)C)C(=O)N[C@@H](CCCCC)C(=O)N2CCC[C@@H]2C(=O)N[C@@H](C(C)C)C(=O)N[C@@H](CO)C(=O)N[C@H](C(=O)NCC(=O)N[C@@H](CCC(=O)NCCOCCOCC(=O)N[C@@H](CC(=O)O)C(=O)NCCOCCOCC(=O)NCCCCCCCCCCC(=O)O)C(=O)O)CSCC(=O)N[C@@H](Cc2ccc3ccccc3c2)C(=O)N[C@@H](Cc2ccc(O)cc2)C(=O)N[C@@H](CC(=O)O)C1=O` [compound 2123] ({CH2CO}-[2Nal]YD[NHexGly]Y[Nle]NRL[Ahp(2)][dP]VSCG[γGlu][AEEA]D[AEEA][Aun]-OH; thioether N-14): under “read-out: HC CBA mVISTA IC50”, the concentration for half-maximal inhibition (IC50) stood at 17.9 nM.
`CCCCCCN1CC(=O)N[C@@H](Cc2ccc(O)cc2)C(=O)N[C@@H](CC(C)C)C(=O)N[C@@H](CC(N)=O)C(=O)N[C@@H](CCCN)C(=O)N(C)[C@@H](CCCC)C(=O)N[C@@H](CCCCC)C(=O)N2CCC[C@H]2C(=O)N[C@@H](C(C)(C)C)C(=O)N[C@@H](CC(=O)O)C(=O)N[C@H](C(=O)NCCOCCOCC(=O)N[C@@H](CCC(=O)NCCOCCOCC(=O)NCCCCCCCCCCC(=O)O)C(=O)O)CSCC(=O)N[C@@H](Cc2ccccc2)C(=O)N[C@@H](Cc2c[nH]c3ccccc23)C(=O)N[C@@H](CC(=O)O)C1=O` [compound 2283] ({CH2CO}-FWD[NHexGly]YLN[Orn][NMeNle][Ahp(2)]P[Tle]DC[AEEA][γGlu][AEEA][Aun]-OH; thioether N-14): the IC50 (read-out: HC CBA mVISTA IC50) worked out at 27.8 nM.
With `CCCCCCN1CC(=O)N[C@@H](Cc2ccc(O)cc2)C(=O)N[C@@H](CCCCC)C(=O)N[C@@H](CC(N)=O)C(=O)N[C@@H](C)C(=O)N[C@@H](CC(C)C)C(=O)N[C@@H](CCCCC)C(=O)N2CCC[C@H]2C(=O)N[C@@H](C(C)C)C(=O)N[C@@H](CO)C(=O)N[C@H](C(=O)NCC(N)=O)CSCC(=O)N[C@@H](Cc2ccccc2)C(=O)N[C@@H](Cc2ccc(O)cc2)C(=O)N[C@@H](CC(=O)O)C1=O` [Example 1032] ({CH2CO}-FYD[NHexGly]Y[Ahp(2)]NAL[Ahp(2)]PVSCG-NH2; thioether N-14), under setting [1], the IC50 amounted to 11.1 nM.
Consider `CCCCCCN1CC(=O)N[C@@H](Cc2ccc(O)cc2)C(=O)N[C@@H](CCCC)C(=O)N[C@@H](CC(N)=O)C(=O)N[C@@H](CCCNC(=N)N)C(=O)N(C)[C@@H](CCCC)C(=O)N[C@@H](CCCCC)C(=O)N2CCC[C@H]2C(=O)N[C@@H](C2CC2)C(=O)N[C@@H](CO)C(=O)N[C@H](C(=O)NCC(N)=O)CSCC(=O)N[C@@H](Cc2ccccc2)C(=O)N[C@@H](Cc2c[nH]c3ccccc23)C(=O)N[C@@H](CC(=O)O)C1=O` [Example 1389] ({CH2CO}-FWD[NHexGly]Y[Nle]NR[NMeNle][Ahp(2)]P[Gly(cPr)]SCG-NH2; thioether N-14), for which the IC50 (read-out: HC CBA mVISTA IC50) worked out at 34.4 nM.
Still for that read-out and setting: the figure for `CCCCCCN1CC(=O)N[C@@H](Cc2ccc(O)cc2)C(=O)N[C@@H](CCCC)C(=O)N[C@@H](CC(=O)O)C(=O)N[C@@H](CCCN)C(=O)N(C)[C@@H](CCCC)C(=O)N[C@@H](CCCCC)C(=O)N2CCC[C@H]2C(=O)N[C@@H](C(C)(C)C)C(=O)N[C@@H](CC(=O)O)C(=O)N[C@H](C(=O)N[C@@H](CC(=O)O)C(N)=O)CSCC(=O)N[C@@H](Cc2ccccc2)C(=O)N[C@@H](Cc2c[nH]c3ccccc23)C(=O)N[C@@H](CC(=O)O)C1=O` [Example 1372] ({CH2CO}-FWD[NHexGly]Y[Nle]D[Orn][NMeNle][Ahp(2)]P[Tle]DCD-NH2; thioether N-14) is 16.4 nM; for `CCCCCCN1CC(=O)N[C@@H](Cc2ccc(O)cc2)C(=O)N[C@@H](CC(C)C)C(=O)N[C@@H](CC(N)=O)C(=O)N[C@@H](CCCNC(=N)N)C(=O)N(C)[C@@H](CO)C(=O)N[C@@H](CCCCC)C(=O)N2CCC[C@H]2C(=O)N[C@@H](C(C)(C)C)C(=O)N[C@@H](CC(=O)O)C(=O)N[C@H](C(=O)NCCOCCOCC(=O)N[C@@H](CCC(=O)NCCOCCOCC(=O)NCCCCCCCCCCC(=O)O)C(=O)O)CSCC(=O)N[C@@H](Cc2ccccc2)C(=O)N[C@@H](Cc2c[nH]c3ccccc23)C(=O)N[C@@H](CC(=O)O)C1=O` [compound 2264] ({CH2CO}-FWD[NHexGly]YLNR[NMeS][Ahp(2)]P[Tle]DC[AEEA][γGlu][AEEA][Aun]-OH; thioether N-14) it is 24.7 nM.
Take `CCCCCCN1CC(=O)N[C@@H](Cc2ccc(O)cc2)C(=O)N[C@@H](CCCC)C(=O)NCC(=O)N[C@@H](CCCNC(=N)N)C(=O)N[C@@H](CC(C)C)C(=O)N[C@@H](CCCCC)C(=O)N2CCC[C@H]2C(=O)N[C@@H](C(C)C)C(=O)N[C@@H](CC(=O)O)C(=O)N[C@H](C(=O)NCC(=O)O)CSCC(=O)N[C@@H](Cc2ccccc2)C(=O)N[C@@H](Cc2ccc(O)cc2)C(=O)N[C@@H](CC(=O)O)C1=O` [Example 1009] ({CH2CO}-FYD[NHexGly]Y[Nle]GRL[Ahp(2)]PVDCG-OH; thioether N-14): the IC50 under setting [1] was 8 nM.
Consider `CCCCCCN1CC(=O)N[C@@H](Cc2ccc(O)cc2)C(=O)N[C@@H](CCCC)C(=O)N[C@@H](CC(=O)O)C(=O)N[C@@H](CCCNC(=N)N)C(=O)N(C)[C@@H](CCCC)C(=O)N[C@@H](CCCCC)C(=O)N2CCC[C@H]2C(=O)N[C@@H](C(C)C)C(=O)N[C@@H](CC(=O)O)C(=O)N[C@H](C(=O)N[C@@H](CC(=O)O)C(N)=O)CSCC(=O)N[C@@H](Cc2cccc(C)c2)C(=O)N[C@@H](Cc2c[nH]c3ccccc23)C(=O)N[C@@H](CC(=O)O)C1=O` [compound 1440] ({CH2CO}-[Phe(3-Me)]WD[NHexGly]Y[Nle]DR[NMeNle][Ahp(2)]PVDCD-NH2; thioether N-14), for which the IC50 (the 19th table, scaffold drawing 22, read-out: HC CBA mVISTA IC50) is 14.8 nM.
`CCCCCCN1CC(=O)N[C@@H](Cc2ccc(O)cc2)C(=O)N[C@@H](CCCC)C(=O)N[C@@H](CC(N)=O)C(=O)N[C@@H](CCCNC(=N)N)C(=O)N[C@@H](CC(C)C)C(=O)N[C@@H](CCCCC)C(=O)N2CCC[C@H]2C(=O)N[C@@H](C(C)C)C(=O)N[C@@H](CO)C(=O)N[C@H](C(=O)NCC(=O)O)CSCC(=O)N[C@@H](Cc2ccc(F)cc2)C(=O)N[C@@H](Cc2ccc(O)cc2)C(=O)N[C@@H](CC(=O)O)C1=O` [compound 1462] ({CH2CO}-[Phe(4-F)]YD[NHexGly]Y[Nle]NRL[Ahp(2)]PVSCG-OH; thioether N-14): where the note is “the 20th table, scaffold drawing 23, read-out: HC CBA mVISTA IC50”, the IC50 came out at 22.2 nM.
As to `CCCCCCN1CC(=O)N[C@@H](Cc2ccc(O)cc2)C(=O)N[C@@H](C(C)C)C(=O)NCC(=O)N[C@@H](CCCNC(=N)N)C(=O)N[C@@H](CC(C)C)C(=O)N[C@@H](CCCCC)C(=O)N2CCC[C@H]2C(=O)N[C@@H](C(C)C)C(=O)N[C@@H](CC(=O)O)C(=O)N[C@H](C(=O)N[C@@H](CO)C(=O)N[C@@H](CCN)C(=O)N[C@@H](CCC(N)=O)C(=O)O)CSCC(=O)N[C@@H](Cc2ccc3ccccc3c2)C(=O)N[C@@H](Cc2ccc(O)cc2)C(=O)N[C@@H](CC(=O)O)C1=O` [Example 1166] ({CH2CO}-[2Nal]YD[NHexGly]YVGRL[Ahp(2)]PVDCS[Dab]Q-OH; thioether N-14), the IC50 under setting [1] stood at 18.8 nM.
Same read-out and setting: the figure for `CCCCCCN1CC(=O)N[C@@H](Cc2ccc(O)cc2)C(=O)N[C@@H](CCCC)C(=O)NCC(=O)N[C@@H](CCCNC(=N)N)C(=O)N[C@@H](CC(C)C)C(=O)N[C@@H](CCCCC)C(=O)N2CCC[C@H]2C(=O)N[C@@H](C(C)C)C(=O)N[C@@H](CO)C(=O)N[C@H](C(=O)NCC(N)=O)CSCC(=O)N[C@@H](Cc2ccccc2)C(=O)N[C@@H](Cc2ccc(O)cc2)C(=O)N[C@@H](CC(=O)O)C1=O` [Example 1050] ({CH2CO}-FYD[NHexGly]Y[Nle]GRL[Ahp(2)]PVSCG-NH2; thioether N-14) is 29.9 nM; for `CCCCCCN1CC(=O)N[C@@H](Cc2ccc(O)cc2)C(=O)N[C@@H](CCC)C(=O)NCC(=O)N[C@@H](CCCNC(=N)N)C(=O)N[C@@H](CC(C)C)C(=O)N[C@@H](CCCCC)C(=O)N2CCC[C@H]2C(=O)N[C@@H](C(C)C)C(=O)N2CCC[C@H]2C(=O)N[C@H](C(=O)NCC(N)=O)CSCC(=O)N[C@@H](Cc2ccccc2)C(=O)N[C@@H](Cc2ccc(O)cc2)C(=O)N[C@@H](CC(=O)O)C1=O` [Example 1102] ({CH2CO}-FYD[NHexGly]Y[Nva]GRL[Ahp(2)]PVPCG-NH2; thioether N-14) it is 25.7 nM.
As to `CCCCCCN1CC(=O)N[C@@H](Cc2ccc(O)cc2)C(=O)N[C@@H](CC(C)C)C(=O)N[C@@H](CC(N)=O)C(=O)N[C@@H](CCCN)C(=O)N(C)[C@@H](CCCC)C(=O)N[C@@H](CCCCC)C(=O)N2CCC[C@H]2C(=O)N[C@@H](C(C)(C)C)C(=O)N[C@@H](CO)C(=O)N[C@H](C(=O)N[C@@H](CCC(=O)NCCCCCCCCCCC(=O)O)C(=O)O)CSCC(=O)N[C@@H](Cc2ccccc2)C(=O)N[C@@H](Cc2ccc(O)cc2)C(=O)N[C@@H](CC(=O)O)C1=O` [Example 2132] ({CH2CO}-FYD[NHexGly]YLN[Orn][NMeNle][Ahp(2)]P[Tle]SC[γGlu][Aun]-OH; thioether N-14), the IC50 (read-out: HC CBA mVISTA IC50) worked out at 23.5 nM.
Take `CCCCCCN1CC(=O)N[C@@H](Cc2ccc(O)cc2)C(=O)N[C@@H](CC(C)C)C(=O)N[C@@H](CC(N)=O)C(=O)N[C@@H](CCCNC(=N)N)C(=O)N[C@@H](CC(C)C)C(=O)N[C@@H](CCCCC)C(=O)N2CCC[C@H]2C(=O)N[C@@H](C(C)C)C(=O)N[C@@H](CO)C(=O)N[C@H](C(=O)N[C@@H](CCC(=O)NCCOCCOCC(=O)N[C@@H](CC(=O)O)C(=O)NCCOCCOCC(=O)NCCCCCCCCCCC(=O)O)C(=O)O)CSCC(=O)N[C@@H](Cc2ccccc2)C(=O)N[C@@H](Cc2ccc(O)cc2)C(=O)N[C@@H](CC(=O)O)C1=O` [compound 2002] ({CH2CO}-FYD[NHexGly]YLNRL[Ahp(2)]PVSC[γGlu][AEEA]D[AEEA][Aun]-OH; thioether N-14): the IC50 (cell-based binding high-content assay, mVISTA, read-out: HC CBA miPr ISTA IC50) is 19.6 nM.
